Measured values published in PubChem BioAssay AID248 (DTP/NCI, 2004).
Values joined by “and” are separate entries in the source; they are usually repeats but may differ in a detail not shown here. Identical values can stand only once. Inconclusive results and toxic doses are left out. Rule as the data show it: active = T/C of 150% or more; inactive = T/C below 125%.

System: L1210 leukemia ip in BDF1 mice, survival T/C
Test: NCI In Vivo Anticancer Drug Screen. Data for tumor model L1210 Leukemia (intraperitoneal) in B6D2F1 (BDF1) mice
Settings: endpoint: mean survival time, higher = longer survival
Method in brief: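 Ratio derived from survival: compound-dosed mice over vehicle-dosed mice, all bearing a transplantable tumor.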

[1] = dose: 100.0 mg/kg/injection, schedule: Q04DX003 (ip), vehicle: saline with Tween-80
[2] = dose: 200.0 mg/kg/injection, schedule: Q04DX003 (ip), vehicle: saline with Tween-80
[3] = dose: 400.0 mg/kg/injection, schedule: Q04DX003 (ip), vehicle: saline with Tween-80
[4] = dose: 100.0 mg/kg/injection, schedule: Q01DX001 (ip), vehicle: carboxymethylcellulose (CMC)
[5] = dose: 200.0 mg/kg/injection, schedule: Q01DX001 (ip), vehicle: carboxymethylcellulose (CMC)
[6] = dose: 400.0 mg/kg/injection, schedule: Q01DX001 (ip), vehicle: carboxymethylcellulose (CMC)
[7] = dose: 100.0 mg/kg/injection, schedule: Q01DX009 (ip), vehicle: Klucel (hydroxypropylcellulose) (HPC)
[8] = dose: 100.0 mg/kg/injection, schedule: Q04DX003 (ip), vehicle: Klucel (hydroxypropylcellulose) (HPC)
[9] = dose: 200.0 mg/kg/injection, schedule: Q01DX009 (ip), vehicle: Klucel (hydroxypropylcellulose) (HPC)
[10] = dose: 200.0 mg/kg/injection, schedule: Q04DX003 (ip), vehicle: Klucel (hydroxypropylcellulose) (HPC)
[11] = dose: 400.0 mg/kg/injection, schedule: Q01DX009 (ip), vehicle: Klucel (hydroxypropylcellulose) (HPC)
[12] = dose: 400.0 mg/kg/injection, schedule: Q04DX003 (ip), vehicle: Klucel (hydroxypropylcellulose) (HPC)
[13] = dose: 100.0 mg/kg/injection, schedule: Q04DX002 (ip), vehicle: Klucel (hydroxypropylcellulose) (HPC)
[14] = dose: 200.0 mg/kg/injection, schedule: Q04DX002 (ip), vehicle: Klucel (hydroxypropylcellulose) (HPC)
[15] = dose: 100.0 mg/kg/injection, schedule: Q01DX001 (ip), vehicle: saline
[16] = dose: 200.0 mg/kg/injection, schedule: Q01DX001 (ip), vehicle: saline
[17] = dose: 400.0 mg/kg/injection, schedule: Q01DX001 (ip), vehicle: saline
[18] = dose: 200.0 mg/kg/injection, schedule: Q01DX009 (ip), vehicle: saline with Tween-80
[19] = dose: 100.0 mg/kg/injection, schedule: Q01DX009 (ip), vehicle: saline with Tween-80
[20] = dose: 50.0 mg/kg/injection, schedule: Q01DX009 (ip), vehicle: other
[21] = dose: 100.0 mg/kg/injection, schedule: Q04DX003 (ip), vehicle: saline
[22] = dose: 200.0 mg/kg/injection, schedule: Q04DX003 (ip), vehicle: saline
[23] = dose: 50.0 mg/kg/injection, schedule: Q01DX001 (ip), vehicle: saline
[24] = dose: 100.0 mg/kg/injection, schedule: Q01DX001 (ip), vehicle: Klucel (hydroxypropylcellulose) (HPC)
[25] = dose: 200.0 mg/kg/injection, schedule: Q01DX001 (ip), vehicle: Klucel (hydroxypropylcellulose) (HPC)
[26] = dose: 400.0 mg/kg/injection, schedule: Q01DX001 (ip), vehicle: Klucel (hydroxypropylcellulose) (HPC)

Measured: T/C

CCN(CC)C(=O)Nc1cccc(OC(=O)NC(C)(C)C)c1
inactive: [1] 99 % of control | [2] 103 % of control | [3] 93 % of control

O=C(Cc1ccccc1)NCCc1ccc(-c2ccccc2)cc1
inactive: [4] 94 % of control | [5] 96 % of control | [6] 86 % of control

C/C(=C\c1ccccc1)C(=O)c1ccc(-c2ccccc2)cc1
inactive: [7] 97 % of control | [8] 100 % of control | [9] 93 % of control | [10] 100 % of control | [11] 92 % of control | [12] 93 % of control

CC12C(=O)OC(=O)C1C1C=CC2C1 (stereo not drawn)
inactive: [13] 102 % of control | dose: 100.0 mg/kg/injection, schedule: Q04DX003 (ip), vehicle: other 98 % of control | [14] 102 % of control | dose: 200.0 mg/kg/injection, schedule: Q04DX003 (ip), vehicle: other 102 % of control

CC(/C=C/c1ccccc1)=C1/SC(=S)NC1=O
inactive: [15] 93 % of control | [16] 96 % of control | [17] 94 % of control

CCOC(=O)c1ccc(NC(=S)NC(=O)c2ccc(Cl)cc2Cl)cc1
inactive: [18] 88 % of control | dose: 400.0 mg/kg/injection, schedule: Q01DX009 (ip), vehicle: saline with Tween-80 88 % of control

O=C(O)c1ccc(Nc2ncnc3nc[nH]c23)cc1
inactive: [1] 104 % of control | [2] 96 % of control | [3] 102 % of control

COc1cc(NC(C)=O)c2ncccc2c1
inactive: [19] 99 % of control | [18] 106 % of control

O=C(CBr)c1cc2ncccc2c2ccccc12
inactive: dose: 12.5 mg/kg/injection, schedule: Q01DX009 (ip), vehicle: other 90 % of control | dose: 25.0 mg/kg/injection, schedule: Q01DX009 (ip), vehicle: other 94 % of control | [20] 102 % of control

C(=N\N(Cc1ccccc1)CN(Cc1ccccc1)/N=C/c1ccccc1)/c1ccccc1
inactive: dose: 100.0 mg/kg/injection, schedule: Q01DX001 (ip), vehicle: other 90 % of control | dose: 200.0 mg/kg/injection, schedule: Q01DX001 (ip), vehicle: other 94 % of control | dose: 400.0 mg/kg/injection, schedule: Q01DX001 (ip), vehicle: other 87 % of control

COC(=O)C(Br)C(Br)c1ccc(OC)c(OC)c1 (stereo not drawn)
inactive: [8] 96 % of control | [10] 101 % of control | [12] 96 % of control

Cc1nc2ccc(O)cc2cc1CO
inactive: dose: 50.0 mg/kg/injection, schedule: Q01DX009 (ip), vehicle: saline 100 % of control | dose: 100.0 mg/kg/injection, schedule: Q01DX009 (ip), vehicle: saline 87 % of control | [21] 104 % of control | dose: 200.0 mg/kg/injection, schedule: Q01DX009 (ip), vehicle: saline 89 % of control | [22] 103 % of control | dose: 400.0 mg/kg/injection, schedule: Q01DX009 (ip), vehicle: saline 113 % of control | dose: 400.0 mg/kg/injection, schedule: Q04DX003 (ip), vehicle: saline 109 % of control

CCCCOC(=O)/C(=C\c1cccc(OC)c1)NC(=O)c1ccccc1
inactive: [20] 92 % of control | dose: 100.0 mg/kg/injection, schedule: Q01DX009 (ip), vehicle: other 89 % of control | dose: 200.0 mg/kg/injection, schedule: Q01DX009 (ip), vehicle: other 100 % of control and 91 % of control | dose: 400.0 mg/kg/injection, schedule: Q01DX009 (ip), vehicle: other 88 % of control

CCC(C)NNCCO (stereo not drawn)
inactive: [23] 97 % of control | [15] 103 % of control | [16] 100 % of control

OC1CCCCC1(c1ccccc1)c1ccccc1 (stereo not drawn)
inactive: dose: 50.0 mg/kg/injection, schedule: Q01DX009 (ip), vehicle: saline with Tween-80 94 % of control | [19] 91 % of control | [18] 91 % of control

Clc1ccccc1C1Nc2ccccc2S1 (stereo not drawn)
inactive: [15] 109 % of control | [16] 104 % of control | [17] 99 % of control

O=C(c1ccsc1)C(O)c1ccccc1 (stereo not drawn)
inactive: [4] 97 % of control | [5] 87 % of control | [6] 103 % of control

CCN1CCCC(OC(=O)c2cccc3[nH]ccc23)C1 (stereo not drawn)
inactive: [24] 93 % of control | [8] 103 % of control | [25] 97 % of control | [10] 101 % of control | [26] 98 % of control | [12] 101 % of control

CC1C(=O)/C(=C/N(C)c2ccccc2)CC1C(=O)O (stereo not drawn)
inactive: [24] 93 % of control | [8] 100 % of control | [25] 93 % of control | [9] 97 % of control | [10] 98 % of control | [26] 87 % of control | [11] 97 % of control | [12] 98 % of control

O=C(On1c(-c2ccccc2)cc2ccccc21)c1ccc([N+](=O)[O-])cc1
inactive: [13] 104 % of control | [14] 111 % of control | dose: 400.0 mg/kg/injection, schedule: Q04DX002 (ip), vehicle: Klucel (hydroxypropylcellulose) (HPC) 96 % of control

[O-][n+]1ccccc1F
inactive: dose: 5.0 mg/kg/injection, schedule: Q01DX001 (ip), vehicle: saline 100 % of control | dose: 10.0 mg/kg/injection, schedule: Q01DX001 (ip), vehicle: saline 102 % of control | dose: 20.0 mg/kg/injection, schedule: Q01DX001 (ip), vehicle: saline 103 % of control | dose: 40.0 mg/kg/injection, schedule: Q01DX001 (ip), vehicle: saline 96 % of control | dose: 80.0 mg/kg/injection, schedule: Q01DX001 (ip), vehicle: saline 98 % of control

O=c1[nH]c2ccccc2n1C1CCN(CCCS(=O)(=O)c2ccccc2)CC1
inactive: dose: 200.0 mg/kg/injection, schedule: Q04DX003 (ip), vehicle: gum acacia 91 % of control | dose: 400.0 mg/kg/injection, schedule: Q04DX003 (ip), vehicle: gum acacia 87 % of control

O=S(=O)(Nc1c(Cl)c(Cl)c(Cl)c(Cl)c1NS(=O)(=O)c1ccccc1)c1ccccc1
inactive: [7] 101 % of control | [8] 94 % of control | [9] 92 % of control | [10] 100 % of control | [12] 95 % of control

Cc1ccncc1C#N
inactive: dose: 6.0 mg/kg/injection, schedule: Q04DX003 (ip), vehicle: saline 98 % of control | dose: 12.0 mg/kg/injection, schedule: Q04DX003 (ip), vehicle: saline 98 % of control | dose: 24.0 mg/kg/injection, schedule: Q04DX003 (ip), vehicle: saline 98 % of control

C=CC1(O)CCOCC1
inactive: dose: 25.0 mg/kg/injection, schedule: Q01DX001 (ip), vehicle: saline 97 % of control | [23] 97 % of control | [15] 97 % of control

CCOC(=O)C(=O)Nc1ccccc1C(=O)O
inactive: dose: 100.0 mg/kg/injection, schedule: Q04DX009 (ip), vehicle: saline with Tween-80 96 % of control | dose: 200.0 mg/kg/injection, schedule: Q04DX009 (ip), vehicle: saline with Tween-80 103 % of control | dose: 400.0 mg/kg/injection, schedule: Q04DX009 (ip), vehicle: saline with Tween-80 102 % of control

CNc1nc(Cl)nc(Cl)n1
inactive: [21] 87 % of control | [22] 87 % of control

CC(=O)NC(C=O)CC(C=O)CO (stereo not drawn)
inactive: [22] 110 % of control | dose: 300.0 mg/kg/injection, schedule: Q04DX003 (ip), vehicle: saline 113 % of control

O=C1c2ccccc2C(=O)N1CNc1cccc(NCN2C(=O)c3ccccc3C2=O)c1
inactive: [1] 91 % of control | [2] 97 % of control | [3] 102 % of control
